Measurements taken from US20110053770A1, “SUBSTITUTED AMINOTHIAZOLES AND THEIR USE AS FUNGICIDES” (BAYER CROPSCIENCE AG, priority 2009, published 2011).
Marks after values point to notes of the source that are not given here.

Assay: logP by HPLC on reversed-phase columns (C 18), EEC directive 79/831 Annex V.A8
Format: physicochemical
Conditions: for log P (**) / log P (***): LC-MS; for log P (**) / log P (*): acidic range; for log P (**): pH 2.7, 0.1% aqueous formic acid and acetonitrile; for log P (***): neutral range, pH 7.8, 0.001 molar aqueous ammonium bicarbonate and acetonitrile; for log P (*): pH 2.3, 0.1% aqueous phosphoric acid and acetonitrile
Experimental: Calibration was carried out using unbranched alkan-2-ones (having from 3 to 16 carbon atoms) with known logP values (the logP values were determined by the retention times using linear interpolation between two successive alkanones).

Structure (SMILES): Cc1ccc(Oc2ccccc2-c2csc(N=C3CCCCN3)n2)c(C)c1 [compound 1, 4-[2-(2,4-dimethylphenoxy)phenyl]-N-[(2E/Z)-piperidin-2-ylidene]-1,3-thiazole-2-amine]
- log P (**): 2.66
- log P (***): 4.9

Structure (SMILES): Clc1ccc(-c2csc(N=C3CCCCN3)n2)cc1 [compound 2, 4-(4-chlorophenyl)-N-[(2E/Z)-piperidin-2-ylidene]-1,3-thiazole-2-amine]
- log P (**): 1.7**

Structure (SMILES): Brc1ccc(-c2csc(N=C3CCCCN3)n2)cc1 [compound 3, 4-(4-bromophenyl)-N-[(2E/Z)-piperidin-2-ylidene]-1,3-thiazole-2-amine]
- log P (**): 1.67**

Structure (SMILES): Clc1ccc(-c2csc(N=C3CCCCN3)n2)c(Cl)c1 [compound 4, 4-(2,4-dichlorophenyl)-N-[(2E/Z)-piperidin-2-ylidene]-1,3-thiazole-2-amine]
- log P (**): 1.8**

Structure (SMILES): c1ccc(Oc2ccc(-c3csc(N=C4CCCCN4)n3)cc2)cc1 [compound 5, 4-(4-phenoxyphenyl)-N-[(2E/Z)-piperidin-2-ylidene]-1,3-thiazole-2-amine]
- log P (**): 2.17
- log P (***): 3.97

Structure (SMILES): FC(F)(F)c1cc(-c2csc(N=C3CCCCN3)n2)cc(C(F)(F)F)c1 [compound 6, 4-[3,5-bis(trifluoromethyl)phenyl]-N-[(2E/Z)-piperidin-2-ylidene]-1,3-thiazole-2-amine]
- log P (**): 2.23
- log P (***): 4.36

Structure (SMILES): Fc1ccc(Oc2ccccc2-c2csc(N=C3CCCCN3)n2)c(F)c1 [compound 7, 4-[2-(2,4-difluorophenoxy)phenyl]-N-[(2E/Z)-piperidin-2-ylidene]-1,3-thiazole-2-amine]
- log P (**): 2.11
- log P (***): 3.9
- log P (*): 2.11

Structure (SMILES): FC(F)(F)c1cccc(-c2csc(N=C3CCCCN3)n2)c1Cl [compound 8, 4-[2-chloro-3-(trifluoromethyl)phenyl]-N-[(2E/Z)-piperidin-2-yl-idene]-1,3-thiazole-2-amine]
- log P (**): 1.94
- log P (***): 3.72

Structure (SMILES): Fc1ccc(Oc2ccc(-c3csc(N=C4CCCCN4)n3)cc2)c(F)c1 [compound 9, 4-[4-(2,4-difluorophenoxy)phenyl]-N-[(2E/Z)-piperidin-2-ylidene]-1,3-thiazole-2-amine]
- log P (***): 3.95
- log P (*): 2.12

Structure (SMILES): c1ccc(Oc2ccccc2-c2csc(N=C3CCCCN3)n2)cc1 [compound 10, 4-(2-phenoxyphenyl)-N-[(2E/Z)-piperidin-2-ylidene]-1,3-thiazole-2-amine]
- log P (**): 2.09
- log P (***): 3.91
- log P (*): 2.07

Structure (SMILES): Clc1ccc(Oc2ccccc2-c2csc(N=C3CCCCN3)n2)c(Cl)c1 [compound 11, 4-[2-(2,4-dichlorophenoxy)phenyl]N-[(2E/Z)-piperidin-2-ylidene]-1,3-thiazole-2-amine]
- log P (**): 2.42
- log P (***): 4.84
- log P (*): 2.42

Structure (SMILES): CC(C)(C)c1cc(Oc2ccccc2-c2csc(N=C3CCCCN3)n2)ccc1Cl [compound 12, 4-[2-(3-tert-butyl-4-chlorophenoxy)phenyl]-N-[(2E/Z)-piperidin-2-ylidene]-1,3-thiazole-2-amine]
- log P (**): 2.92
- log P (***): 5.96
- log P (*): 2.92

Structure (SMILES): FC(F)(F)c1cc(Oc2ccccc2-c2csc(N=C3CCCCN3)n2)ccc1Cl [compound 14, 4-{2-[4-chloro-3-(trifluoromethyl)phenoxy]phenyl}-N-[(2E/Z)-piperidin-2-ylidene]-1,3-thiazole-2-amine]
- log P (**): 2.58
- log P (***): 4.9
- log P (*): 2.58

Structure (SMILES): FC(F)(F)Oc1ccccc1-c1csc(N=C2CCCCN2)n1 [compound 15, N-[(2E/Z)-piperidin-2-ylidene]-4-[2-(trifluoromethoxy)phenyl]-1,3-thiazole-2-amine]
- log P (**): 1.77
- log P (***): 3.54
- log P (*): 1.77
